Holding throughout (assay): NCI-60 cell line screen, 48 h
Test [1] concerns SNB-19 CNS.
The test system of test [2] is MDA-MB-435.
Test [3] has as its system TK-10 renal.
Test [4] concerns UACC-62 melanoma.
Test [5] deals with MCF7 breast.
Test [6] concerns NCI-H460 lung.
Test [7] deals with T-47D breast.
For test [8], the system named is MDA-MB-231 breast.
The subject of test [9] is COLO 205 colon.
Test [10] concerns HCC-2998 colon.
Test [11] has as its system OVCAR-5 ovarian.
The subject of test [12] is U251 CNS.
The subject of test [13] is HCT-116 colon.
Test [14] deals with HOP-62 NSCLC.
The subject of test [15] is SK-MEL-28 melanoma.
The subject of test [16] is SR leukemia.
Test [17] has as its system KM12 colon.
The test system of test [18] is SNB-75 CNS.
Test [19] relates to EKVX NSCLC.
The subject of test [20] is SF-268 CNS.

Each structure is given as a SMILES string.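 Growth conditions: 96-well plates. Treatment: test compound, 48 hours, 5 concentrations. Analysis: linear interpolation between bracketing concentrations; unreached endpoints set to highest concentration. TGI is the concentration that stops growth completely.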

On to `COc1ccc2c(c1)CCN1CCc3ccccc3CC21` (stereo not given), for which the TGI in [1], in [2], in test [3], in test [4], in test [5] and in test [6] was above 100 µM each time. The TGI in [7] was above 100 µM; in [8], above 100 µM; in test [9], 46.1 µM; in test [10], 48.1 µM; in test [11], above 100 µM; in test [12] it was above 100 µM. Also, the TGI in test [13] is above 100 µM; in test [14] it was above 100 µM; in test [15], 98.5 µM; in test [16], above 100 µM; in test [17], above 100 µM; in test [18] it was above 100 µM. For the same molecule, the TGI in test [19] and in [20] was above 100 µM throughout.
As for `O=c1oc2ccc([N+](=O)[O-])cc2c(Nc2ccc3c(c2)Oc2ccccc2O3)c1[N+](=O)[O-]`, the TGI in test [1] was above 100 µM; in test [2], above 100 µM; in test [3] it was above 100 µM; in test [4] it was above 100 µM; in test [5], 67.5 µM; in test [6], above 100 µM. The TGI in [7] is above 100 µM; in test [8] it was 37 µM; in [9] it was 40.2 µM; in test [10] it was 66.4 µM; in [11] it was above 100 µM; in test [12], 38.7 µM. Besides, the TGI in test [13] is above 100 µM; in test [14], above 100 µM; in test [15], above 100 µM; in test [16] it was 72.4 µM; in test [17], above 100 µM; in [18], above 100 µM. The TGI in test [19] and in test [20] was above 100 µM throughout.
Turning to `CC(=O)[C@@]1(O)CC[C@H]2[C@@H]3C[C@H](C)C4=CC(=O)C=C[C@]4(C)[C@@]3(F)[C@@H](O)C[C@@]21C`, the TGI in test [1], in test [2], in [3], in test [4], in test [5] and in test [6] was above 100 µM throughout. The TGI in [7], in [8], in test [9], in test [10], in test [11] and in test [12] was above 100 µM throughout. The TGI in [13] is above 100 µM; in [14], above 100 µM; in test [15], above 100 µM; in test [16] it was above 100 µM; in [17] it was above 100 µM; in test [18] it was above 91.9 µM. Moreover, the TGI in test [19] and in test [20] was above 100 µM throughout.
In the case of `CCOC(=O)NC(Nc1ccc([N+](=O)[O-])cc1)(C(F)(F)F)C(F)(F)F`, the TGI in test [1] was above 100 µM; in [2], 49.1 µM; in test [3], above 100 µM; in test [4], above 100 µM; in test [5], above 100 µM; in test [6], above 100 µM. In addition, the TGI in [7], in [8], in test [9], in [10], in test [11] and in test [12] was above 100 µM in each case. Further, the TGI in [13], in [14], in [15], in [16], in test [17] and in [18] was above 100 µM each time. The TGI in test [19] and in test [20] was above 100 µM each time.
Regarding `N#Cc1c(Cl)cc(Cl)n2c1nc1ccccc12`, the TGI in [1] is 50.7 µM; in test [2], 35.3 µM; in [3] it was 18.1 µM; in [4], 29.8 µM; in test [5] it was 24 µM; in test [6] it was 23.7 µM. Also, the TGI in test [7] was found to be 31.8 µM; in [8], 14.2 µM; in test [9], 21.2 µM; in [10] it was 8.44 µM; in test [11] it was 41.9 µM; in [12] it was 55.5 µM. Further, the TGI was 29.8 µM in [13]; 51.7 µM in test [14]; 20.3 µM in test [15]; above 29.6 µM in [16]; 33.1 µM in test [17]; 32.7 µM in test [18]. For the same molecule, the TGI was determined as 67.6 µM in test [19] and 40.1 µM in [20].
Take `CN(C)c1ccc(C2SCC(=O)N2c2ccc(Oc3ccc(Cl)cc3)c(Cl)c2)cc1` (stereo not given): the TGI in test [1] was 54.8 µM; in test [2], 84 µM; in [3], above 100 µM; in [4], 42.7 µM; in test [5], 89.3 µM; in test [6] it was 49.4 µM. Further, the TGI is 61 µM in test [7]; 43.3 µM in [8]; 36.2 µM in test [9]; 52.4 µM in test [10]; 87.7 µM in test [11]; 53.9 µM in test [12]. The TGI in test [13] is 32.7 µM; in [14] it was 41 µM; in test [15], above 100 µM; in [16], 57.3 µM; in [17], 40.9 µM; in test [18], 50.9 µM. Further, the TGI was 60.5 µM in test [19] and 37.9 µM in test [20].
As to `CCNC(=O)Nc1cccc(NC(=O)NCC)n1`, the TGI in test [1], in [2], in test [3], in test [4], in test [5] and in test [6] was above 100 µM each time. The TGI in [7], in test [8], in test [9], in test [10], in [11] and in [12] was above 100 µM each time. Moreover, the TGI in test [13], in test [14], in [15], in test [16], in test [17] and in test [18] was above 100 µM in each case. Moreover, the TGI in test [19] and in test [20] was above 100 µM in each case.
For the molecule `COc1ccc2cc(C(C)C(=O)N3CCOC3=O)ccc2c1` (stereo not given), the TGI in test [1], in test [2], in test [3], in [4], in [5] and in [6] was above 100 µM in each case. Besides, the TGI in [7], in [8], in test [9], in test [10], in test [11] and in test [12] was above 100 µM throughout. In addition, the TGI in [13], in test [14], in [15], in test [16], in test [17] and in test [18] was above 100 µM throughout. For the same molecule, the TGI in test [19] and in [20] was above 100 µM in each case.
On to `Nc1ccc(C(=O)N2CCC[C@H]2CO)c(N)c1`, for which the TGI in test [1], in test [2], in test [3], in [4], in test [5] and in test [6] was above 100 µM each time. The TGI in test [7], in [8], in test [9], in [10], in [11] and in test [12] was above 100 µM each time. The TGI in [13], in test [14], in [15], in test [16], in test [17] and in test [18] was above 100 µM throughout. Moreover, the TGI in [19] and in test [20] was above 100 µM in each case.
As for `CC(C)(C)OC(=O)NCCCNC1(c2cc3ccccc3s2)CCCCC1`, the TGI in test [1] was 27.2 µM; in [2] it was 28.7 µM; in test [3] it was 32 µM; in test [4] it was 31.4 µM; in test [5], 30.6 µM; in [6] it was 30.5 µM. Besides, the TGI was 39.7 µM in test [7]; 40.1 µM in test [8]; 27.8 µM in test [9]; 14.3 µM in test [10]; 27.5 µM in test [11]; 74.8 µM in test [12]. Moreover, the TGI in test [13] is 24.8 µM; in test [14], 28.5 µM; in test [15], 29.9 µM; in test [16], 28 µM; in [17], 33.1 µM; in test [18], 30.2 µM. Moreover, the results for the TGI in test [19] and in test [20] were 28.6 µM and 33.8 µM, respectively.
Turning to `Nc1ccc(S(=O)(=O)Nc2nccs2)cc1`, the TGI in test [1], in [2], in [3], in test [4], in [5] and in [6] was above 100 µM throughout. The TGI in [7], in test [8], in test [9], in test [10], in test [11] and in test [12] was above 100 µM each time. For the same molecule, the TGI in [13], in test [14], in test [15], in [16], in [17] and in test [18] was above 100 µM in each case. Further, the TGI in [19] and in [20] was above 100 µM in each case.

Values taken from PubChem BioAssay (NCI).
